This experiment deals with polysorbate degrading activity. Briefly: Reduction of polysorbate degrading activity by lipase inhibitors. The experiment is classed as biochemical, CHO.
[1] abbreviates: 0.001 mM lipase inhibitor, relative to control without inhibitor.

For the compound `CCCCOc1ccccc1B(O)O` [2-Butoxyphenyl boronic acid, 2-butoxyphenylboronic acid], the “Percent reduction in polysorbate 20 degradation” value runs as follows: under setting [1], 0%; (0.01 mM lipase inhibitor) 28%; (0.1 mM lipase inhibitor) 0%.
On to `CCCCCCCCCCC[C@@H](C[C@@H]1OC(=O)[C@H]1CCCCCC)OC(=O)[C@H](CC(C)C)NC=O` [Orlistat, orlistat], for which the “Percent reduction in polysorbate 20 degradation” value is, setting by setting: under setting [1], 0%; (0.01 mM lipase inhibitor) 27.8%^; (0.1 mM lipase inhibitor) 67%.
The corresponding values for `O=C(Nc1cccc(-c2ccccc2)c1)OC1CCCCC1` [URB602, [1-1′-biphenyl]-3-t1-carbamicacid cyclohexyl ester] are 0%, 20% and 0%.
Taken in the same sequence, the figures for diethylumbelliferyl phosphate were 48%, 100% and over 95%.

Source of the values: patent US20240199688A1, “METHODS FOR REDUCING LIPASE ACTIVITY” (Regeneron Pharmaceuticals, Inc., priority 2022, published 2024).
